Source: patent US11096985B2, “Antimicrobial peptides, their variants and uses” (priority 2015, dated 2021)
Where a SMILES comes first, the peptide text is derived from it. [ ]: non-standard residue; d: D form.

Key:
[1] = tested on: clinical strains of Streptococcus pneumoniae; test: MIC, clinical strains of Streptococcus pneumoniae; type: cell-based; design: unit: µg/mL; conditions: microdilution, Muller Hinton broth-cation adjusted, 0.02% BSA, 0.2% acetic acid
Procedure: (§1) Minimum inhibition concentrations (MICs) were determined against Escherichia coli (ATCC 25922), Staphylococcus aureus (ATCC 25923), Klebsiella pneumoniae (ATCC 10031) and Pseudomonas aeruginosa (ATCC 27853). Also clinical strains of E. coli, K. pneumoniae, E. cloacae, P. aeruginosa, Serratia marcescens, Proteus mirabilis, S. pneumoniae, Acinetobacter baumannii, A. johnsonii and S. aureus were used for MICs assays. Additionally, clinical strains of yeast including Candida albicans, C. glabrata, C. parapsilosis and C. quillermondiae were used. The susceptibility of these microorganisms to Chain peptides were determined using micro broth dilution assay. Colonies of the respective microorganism from Muller Hinton (MH) agar plates incubated overnight were suspended in MH broth media and final concentration of microorganism was adjusted to 5.0×10^5 cfu/ml. An aliquot of 10 μl of each Chain peptide, or gentamicin, tetracycline as reference antibiotics were added in differing concentrations along with 90 μl of bacterial suspension to 96 well polypropylene plates and incubated at 37° C. for 20 to 24 hours. Concentrations of Chain peptides and reference antibiotics ranged from 0.125 to 128 μg/ml and the MICs were recorded as the lowest concentration with no visual growth of bacteria. Similarly, antifungal MICs were tested in Potato dextrose broth.
(§2) Clinical strains of yeasts including Candida albicans, C. glabrata, C. parapsilosis and C. quillermondiae were also tested with the 12 Chain peptides. The minimum inhibitory concentration (MICs) varied between these peptides and are presented in Tables 4a, 4b, 4c and 5a, 5b, 5c. Peptides Chain 105, 201 and 308 are broad spectrum antimicrobials with MICs between 0.5-32 μg/ml against all the bacteria and yeasts tested, except Serratia marcescens and Proteus mirabilis, against which the MICs were between 64-128 μg/ml. Peptide Chain 306 has narrow spectrum activity against E.coli at 1 μg/ml and for the rest of the bacterial strains at >32 μg/ml (FIG. 10).

[2] = tested on: clinical strains of Klebsiella pneumoniae; test: MIC, clinical strains of K. pneumoniae; type: cell-based; design: unit: μg/ml; conditions: microdilution, Muller Hinton broth-cation adjusted, 0.02% BSA, 0.2% acetic acid
Procedure: as §1, §2

[3] = tested on: clinical strains of Serratia marcescens; test: MIC, clinical strains of Serratia marcescens; type: cell-based; design: unit: µg/mL; conditions: microdilution, Muller Hinton broth-cation adjusted, 0.02% BSA, 0.2% acetic acid
Procedure: as §1, §2

[4] = tested on: clinical strains of Escherichia coli; test: MIC, clinical strains of E. coli; type: cell-based; design: unit: μg/ml; conditions: microdilution, Muller Hinton broth-cation adjusted, 0.02% BSA, 0.2% acetic acid
Procedure: as §1, §2

[5] = tested on: clinical strains of Candida albicans; test: MIC, clinical yeast strains, Candida albicans; type: cell-based; design: unit: μg/ml
How it was run: (§3)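 Clinical isolates at 5.0×10^5 cfu/ml in Mueller-Hinton broth (Potato dextrose broth for yeasts) were exposed to Chain peptides at 0.125–128 μg/ml by broth microdilution, 37 °C for 20–24 h. MIC was the lowest concentration with no visible growth.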

[6] = tested on: clinical strains of Enterobacter cloacae; test: MIC, clinical strains of Enterobacter cloacae; type: cell-based; design: unit: μg/ml; conditions: microdilution, Muller Hinton broth-cation adjusted, 0.02% BSA, 0.2% acetic acid
Procedure: as §1, §2

[7] = tested on: clinical strains of C. glabrata; test: MIC, clinical yeast strains, C. glabrata; type: cell-based, Candida glabrata; design: unit: μg/ml
How it was run: as §3

[8] = tested on: clinical strains of C. parapsilosis; test: MIC, clinical yeast strains, C. parapsilosis; type: cell-based, Candida parapsilosis; design: unit: μg/ml
How it was run: as §3

[9] = tested on: clinical strains of C. quillermondiae; test: MIC, clinical yeast strains, C. quillermondiae; type: cell-based; conditions: C. quillermondiae clinical yeast strain 1
How it was run: as §3

[10] = tested on: clinical strains of Pseudomonas aeruginosa; test: MIC, clinical strains of P. aeruginosa; type: cell-based; design: unit: μg/ml; conditions: microdilution, Muller Hinton broth-cation adjusted, 0.02% BSA, 0.2% acetic acid
Procedure: as §1, §2

[11] = tested on: clinical strains of Proteus mirabilis; test: MIC, clinical strains of Proteus mirabilis; type: cell-based; design: unit: µg/mL; conditions: microdilution, Muller Hinton broth-cation adjusted, 0.02% BSA, 0.2% acetic acid
Procedure: as §1, §2

[12] = tested on: clinical strains of Staphylococcus aureus; test: MIC, clinical strains of S. aureus; type: cell-based; design: unit: μg/ml; conditions: microdilution, Muller Hinton broth-cation adjusted, 0.02% BSA, 0.2% acetic acid
Procedure: as §1, §2

Measured: Minimum inhibitory concentration

CC[C@@H](C)[C@@H](N)C(=O)N[C@H](Cc1c[nH]c2ccccc12)C(=O)N[C@H](CCCCN)C(=O)N[C@H](CCCNC(=N)N)C(=O)N[C@H](Cc1ccccc1)C(=O)N[C@H](CCCNC(=N)N)C(=O)N[C@H](CC(C)C)C(=O)N[C@H](Cc1ccccc1)C(=O)N[C@H](CCCCN)C(=O)N[C@H](CCCCN)C(=O)N[C@H](Cc1c[nH]c2ccccc12)C(=O)O [Chain304D] (H-[dI][dW][dK][dR][dF][dR][dL][dF][dK][dK][dW]-OH)
16: [4]; Escherichia coli clinical strain 2 | [4]; Escherichia coli clinical strain 3 | [5]; Candida albicans clinical yeast strain 1 | [5]; Candida albicans clinical yeast strain 2 | [5]; Candida albicans clinical yeast strain 3 | [5]; Candida albicans clinical yeast strain 4 | [7]; C. glabrata clinical yeast strain 1 | [7]; C. glabrata clinical yeast strain 2 | [8]; C. parapsilosis clinical yeast strain 4 | [9] | [10]; Pseudomonas aeruginosa clinical strain 5 | [12]; Staphylococcus aureus clinical strain 3 | [12]; Staphylococcus aureus clinical strain 4 | [12]; Staphylococcus aureus clinical strain 5
128: [1]; Streptococcus pneumoniae clinical strain 1 | [1]; Streptococcus pneumoniae clinical strain 2 | [1]; Streptococcus pneumoniae clinical strain 3 | [1]; Streptococcus pneumoniae clinical strain 4 | [6]; Enterobacter cloacae clinical strain 3 | [6]; Enterobacter cloacae clinical strain 4
1: [4]; Escherichia coli clinical strain 1
>128: [2]; Klebsiella pneumoniae clinical strain 1 | [2]; Klebsiella pneumoniae clinical strain 2 | [2]; Klebsiella pneumoniae clinical strain 3 | [2]; Klebsiella pneumoniae clinical strain 4 | [3]; Serratia marcescens clinical strain 1 | [3]; Serratia marcescens clinical strain 2 | [3]; Serratia marcescens clinical strain 3 | [3]; Serratia marcescens clinical strain 4 | [3]; Serratia marcescens clinical strain 5 | [11]; Proteus mirabilis clinical strain 1 | [11]; Proteus mirabilis clinical strain 2 | [11]; Proteus mirabilis clinical strain 3 | [11]; Proteus mirabilis clinical strain 4 | [11]; Proteus mirabilis clinical strain 5
64: [1]; Streptococcus pneumoniae clinical strain 5 | [2]; Klebsiella pneumoniae clinical strain 5 | [6]; Enterobacter cloacae clinical strain 1 | [6]; Enterobacter cloacae clinical strain 2 | [7]; C. glabrata clinical yeast strain 4 | [8]; C. parapsilosis clinical yeast strain 1 | [8]; C. parapsilosis clinical yeast strain 2 | [10]; Pseudomonas aeruginosa clinical strain 2 | [10]; Pseudomonas aeruginosa clinical strain 3 | [10]; Pseudomonas aeruginosa clinical strain 4
32: [4]; Escherichia coli clinical strain 4 | [4]; Escherichia coli clinical strain 5 | [5]; Candida albicans clinical yeast strain 5 | [6]; Enterobacter cloacae clinical strain 5 | [8]; C. parapsilosis clinical yeast strain 3 | [10]; Pseudomonas aeruginosa clinical strain 1 | [12]; Staphylococcus aureus clinical strain 1 | [12]; Staphylococcus aureus clinical strain 2
8: [7]; C. glabrata clinical yeast strain 3
